Source: patent US8871751B2, “Compositions and methods relating to nuclear hormone and steroid hormone receptors including inhibitors of estrogen receptor alpha-mediated gene expression and inhibition of breast cancer” (The Board of Trustees of the University of Illinois, priority 2008, dated 2014)

How the values were obtained:
[1] = molecular target: T1, human PR-B binding to flPRE (Homo sapiens, UniProt P06401); experiment: FAMA: inhibition of PR binding to flcPRE; settings: binding to HRE, 5 concentrations 0.5-10 μM, sequential method
T1 construct: FLAG; made in house
T1 sequence (P06401 1-933): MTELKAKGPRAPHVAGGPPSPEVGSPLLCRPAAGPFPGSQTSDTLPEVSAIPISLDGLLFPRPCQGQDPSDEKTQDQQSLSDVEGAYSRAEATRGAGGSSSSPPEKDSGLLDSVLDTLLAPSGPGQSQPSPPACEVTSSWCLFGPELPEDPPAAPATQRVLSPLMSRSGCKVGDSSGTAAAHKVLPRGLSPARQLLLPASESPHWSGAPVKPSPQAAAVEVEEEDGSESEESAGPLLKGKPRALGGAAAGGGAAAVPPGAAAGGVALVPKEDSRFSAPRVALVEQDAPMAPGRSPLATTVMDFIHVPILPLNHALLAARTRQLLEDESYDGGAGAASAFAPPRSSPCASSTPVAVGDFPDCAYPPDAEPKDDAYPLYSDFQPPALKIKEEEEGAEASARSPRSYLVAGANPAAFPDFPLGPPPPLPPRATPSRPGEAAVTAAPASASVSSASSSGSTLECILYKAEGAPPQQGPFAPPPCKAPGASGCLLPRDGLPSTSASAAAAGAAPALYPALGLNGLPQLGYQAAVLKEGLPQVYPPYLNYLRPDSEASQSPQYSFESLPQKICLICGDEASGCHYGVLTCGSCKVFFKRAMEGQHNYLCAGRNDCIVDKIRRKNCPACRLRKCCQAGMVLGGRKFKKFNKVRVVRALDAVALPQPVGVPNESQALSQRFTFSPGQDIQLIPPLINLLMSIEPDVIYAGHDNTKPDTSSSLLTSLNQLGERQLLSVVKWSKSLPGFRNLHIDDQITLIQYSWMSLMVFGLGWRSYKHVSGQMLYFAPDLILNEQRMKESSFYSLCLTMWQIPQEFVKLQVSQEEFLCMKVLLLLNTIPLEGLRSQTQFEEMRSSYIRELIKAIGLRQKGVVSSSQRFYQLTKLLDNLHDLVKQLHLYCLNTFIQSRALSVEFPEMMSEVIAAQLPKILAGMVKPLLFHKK
Description: (§1) Dose response curves for selected compounds were carried out as described for the HTS screen except that each well contained the indicated concentration of test compound. PR assays were carried out in the same buffer used for ERα assays and contained 1 nM flcPRE and 11 nM PR-B and 100 nM progesterone. The buffer used for AR was similar but also contained 5 μM ZnCl, 5 mM NaF, 0.6 μM CHAPS and 100 nM dihydrotestosterone. AR assays contained 1 nM flcARE and 50 nM full-length wild-type AR.
(§2) Specificity was evaluated in dose-response studies by quantitative FAMA using purified full-length human PR binding to a fluorescein-labeled progesterone/glucocorticoid response element (flPRE) and full-length human androgen receptor (AR) binding to a fluorescein-labeled androgen response element (flARE).

[2] = molecular target: T2, human androgen receptor (AR) binding to flARE (Homo sapiens, UniProt P10275); experiment: FAMA: inhibition of AR binding to flcARE; settings: binding to HRE, 5 concentrations 0.5-10 μM, sequential method
T2 construct: AR assays contained 1 nM flcARE and 50 nM full-length wild-type AR; FLAG; made in house
T2 sequence (P10275 1-920): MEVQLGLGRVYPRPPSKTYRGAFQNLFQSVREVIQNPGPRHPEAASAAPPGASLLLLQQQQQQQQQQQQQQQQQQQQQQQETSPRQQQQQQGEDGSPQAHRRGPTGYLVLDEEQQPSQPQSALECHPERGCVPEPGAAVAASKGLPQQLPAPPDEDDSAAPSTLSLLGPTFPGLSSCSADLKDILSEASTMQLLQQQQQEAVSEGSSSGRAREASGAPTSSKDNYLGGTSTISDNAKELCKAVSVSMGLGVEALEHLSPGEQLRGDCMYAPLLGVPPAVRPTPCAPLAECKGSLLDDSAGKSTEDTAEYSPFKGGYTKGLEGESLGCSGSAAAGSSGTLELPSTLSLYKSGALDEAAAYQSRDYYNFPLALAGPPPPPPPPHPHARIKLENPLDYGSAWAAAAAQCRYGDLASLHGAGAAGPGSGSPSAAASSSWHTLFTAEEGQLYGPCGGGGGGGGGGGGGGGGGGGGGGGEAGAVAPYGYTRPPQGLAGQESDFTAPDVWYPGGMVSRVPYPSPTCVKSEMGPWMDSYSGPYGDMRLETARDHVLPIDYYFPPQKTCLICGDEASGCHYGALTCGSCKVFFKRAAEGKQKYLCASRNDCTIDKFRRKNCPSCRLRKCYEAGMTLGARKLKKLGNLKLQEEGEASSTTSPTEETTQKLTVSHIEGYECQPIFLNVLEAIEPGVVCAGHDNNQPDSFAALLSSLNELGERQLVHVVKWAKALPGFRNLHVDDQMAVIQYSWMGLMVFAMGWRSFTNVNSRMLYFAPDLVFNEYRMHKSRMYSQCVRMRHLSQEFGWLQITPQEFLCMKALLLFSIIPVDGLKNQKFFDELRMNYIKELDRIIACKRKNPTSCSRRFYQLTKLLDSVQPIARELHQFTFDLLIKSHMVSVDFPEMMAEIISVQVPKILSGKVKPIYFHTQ
Description: as §1, §2

[3] = molecular target: T3, PR (Homo sapiens, UniProt P06401); experiment: PR transactivation, MMTV-luciferase reporter in T47D cells; format: cell-based
T3 construct: endogenous in cells; host or cells: T47D (stably transfected with GR and MMTV-luciferase)
T3 sequence (P06401 1-933): T1 sequence (P06401 1-933)
Description: The T47D-KBluc cells stably express an (ERE)3-luciferase reporter gene (38). Cells were maintained in phenol red-free RPMI 1640 with 2 mM L-glutamine, 1.5 g/l sodium bicarbonate, 4.5 g/l glucose, 10 mM Hepes, pH 7.5, 1 mM sodium pyruvate, 10% FBS (Atlanta Biological, Atlanta, Ga.) and antibiotics. Four days before E2 induction, the cells were switched to the above medium, with 10% 2× charcoal-dextran-treated calf serum instead of FBS. 200,000 cells/well were transferred to each well of a 24-well plate. After 24 h the indicated concentrations of the test compounds were added in DMSO and E2 was added to 20 pM. After 24 h cells were washed once in PBS, and 150 μl 1× Passive Lysis Buffer (Promega, Madison Wis.) was used to lyse the cells. Luciferase activity was determined using firefly luciferase reagents from Promega (Madison, Wis.). T47D cells stably transfected to express GR and a mouse mammary tumor virus luciferase reporter that responds to liganded GR and PR were maintained and assayed in medium containing 5 nM progesterone for PR assays, or 2.5 nM dexamethsaone for GR assays, essentially as described (39).

[4] = test system: 60 cancer cell lines; settings: independent testing at NCI Developmental Therapeutics Program, cited from earlier work

SMILES | IC50 [1] [µM] | IC50 [2] [µM] | PR at 30 μM [3] | further results
CN(C)CCCn1c2c3ccccc3ccc2c2oc(=O)c3ccccc3c21 [Compound 638432] | 7.4 | 5 | – | –
Cn1c(=O)c2[nH]c(SC3CCCCC3)nc2n(C)c1=S [Compound 95899, 8-Cyclohexylsulfanyl-1,3-dimethyl-2-thioxo-1,2,3,7-tetrahydro-purin-6-one] | – | – | 42 | –
Cn1c(=O)c2[nH]c(C3CC4CCC3C4)nc2n(C)c1=O (stereo not drawn) [Compound 101807, 8-Bicyclo[2.2.1]hept-2-yl-1,3-dimethyl-3,7-dihydro-purine-2,6-dione] | – | – | 71 | –
Cn1c(=O)c2nc(CSCc3ccccc3)[nH]c2n(C)c1=O [Compound 95910, 8-Benzylsulfanylmethyl-1,3-dimethyl-3,7-dihydro-purine-2,6-dione] | 9.5 | 7.6 | – | effect on PR transactivation ([3]; 5 nM progesterone, up to 30 μM): did not significantly inhibit; effect on breast and ovarian cell growth ([4]; up to 100 μM): did not inhibit
CN1CCC(C#N)c2ccccc21 (stereo not drawn) [Compound 1529] | 7.5 | 5.2 | – | –
CCCSc1nc2c([nH]1)c(=O)n(C)c(=S)n2C [Compound 95869, 1,3-Dimethyl-8-propylsulfanyl-2-thioxo-1,2,3,7-tetrahydro-purin-6-one] | – | – | 0 | –
Cn1c(=S)c2[nH]c(SCCCC(=O)c3ccc(F)cc3)nc2n(C)c1=O [TPSF, Butyrophenone, p-fluoro-4-(1,2,3,6,-tetrahydro-1,3-dimethyl-2-oxo-6-thionopurin-8-ylthio)] | – | – | – | effect on growth of a panel of 60 cancer cell lines ([4]; 10 μM): does not inhibit growth
